The test system of the assay is insects. Nature of the assay: Previous experiments, treatment of insects with 1% SLS alone (data not shown). In kind it is in vivo. The conditions noted are these: 300 second time period used in testing.

Where only a bound is given, the exact number is not on record here.

In the case of `CCCCCCCCCCCCOS(=O)(=O)[O-].[Na+]` [1% SLS, sodium lauryl sulfate], the Kill time was above 300 s.

Values taken from US9642373B2, “Insecticidal compositions and methods of using same” (Woodstream Corporation, priority 2004, dated 2017).
